Source: PubChem BioAssay (NCI)
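Compound exposure: 48 hours, 5 concentrations, 96-well plates. Abbreviation: GI50, concentration required for 50% inhibition of growth. TGI: concentration producing complete growth inhibition.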

Key:
Assay in all cases: NCI tumour cell line growth inhibition, 48 h
SF-295 CNS = tested on: SF-295 CNS
HOP-62 NSCLC = tested on: HOP-62 NSCLC
OVCAR-8 ovarian = tested on: OVCAR-8 ovarian
OVCAR-3 ovarian = tested on: OVCAR-3 ovarian
SK-OV-3 ovarian = tested on: SK-OV-3 ovarian
SR leukemia = tested on: SR leukemia
SN12C renal = tested on: SN12C renal
OVCAR-4 ovarian = tested on: OVCAR-4 ovarian

Structure (SMILES)	GI50 (SF-295 CNS) [µM]	TGI (SF-295 CNS) [µM]	GI50 (HOP-62 NSCLC) [µM]	TGI (HOP-62 NSCLC) [µM]	GI50 (OVCAR-8 ovarian) [µM]	TGI (OVCAR-8 ovarian) [µM]	GI50 (OVCAR-3 ovarian) [µM]	TGI (OVCAR-3 ovarian) [µM]	GI50 (SK-OV-3 ovarian) [µM]	TGI (SK-OV-3 ovarian) [µM]	GI50 (SR leukemia) [µM]	TGI (SR leukemia) [µM]	GI50 (SN12C renal) [µM]	TGI (SN12C renal) [µM]	GI50 (OVCAR-4 ovarian) [µM]	TGI (OVCAR-4 ovarian) [µM]
C[n+]1cc2cc3c(cc2c2ccccc21)OCO3	3.17	30.3	6.62	43.2	3.04	30.5	3.13	19.4	7.96	> 100	3.78	> 100	2.31	11.1	3.78	36
COC(=O)C1=CO[C@@H](OC2OC(CO)C(O)C(O)C2O)[C@@H]2[C@H](C)[C@@H](O)[C@@H](O)[C@]12O (stereo partly specified)	–	> 100	–	> 100	–	> 100	–	> 100	–	> 100	–	> 100	–	> 100	–	–
COc1cc2c(c(OC)c1OC)C(=O)c1c-2n(CCCN=[N+]=[N-])c(=O)c2cc([N+](=O)[O-])ccc12	71.2	> 100	30.7	> 100	72.3	> 100	> 100	> 100	62.7	> 100	16.3	41.9	> 100	> 100	46.8	> 100
O=C1Nc2ccc(CN3CCOC3=O)cc2/C1=C/c1cc(CN2CCOCC2)c[nH]1	2.16	> 100	42.7	> 100	33.7	> 100	47.6	> 100	98.9	> 100	7.43	73.9	45.4	> 100	26.6	> 100
CCOC(=O)C(O)Cc1cnc2ccccc2n1 (stereo unspecified)	–	–	–	> 100	–	> 100	–	> 100	–	> 100	–	> 100	–	> 100	–	> 100
CCCC(CCC)Oc1ccc(CCCC2=C(O)c3ccccc3C(=O)C2=O)cc1	2.1	10.4	7.6	22.3	10.2	69.7	4.33	15	12.6	28.3	3.09	8.3	6.79	22.5	8.14	20.5
Cc1ccc(S(=O)(=O)N[C@@H](Cc2ccccc2)C(=O)CCl)cc1	–	41.7	–	39.8	17.8	> 100	9.5	24.2	47.5	> 100	–	–	–	–	16.6	42.6
Cn1ccc2c3c(=O)cc[nH]c3ccc21	> 100	> 100	> 100	> 100	> 100	> 100	> 100	> 100	80.1	> 100	> 100	> 100	> 100	> 100	> 100	> 100
Cc1cc(S(=O)(=O)Nc2nc3ccccc3[nH]2)c(SCc2ccccc2)cc1Cl	21.3	> 100	22.7	> 100	37.5	> 100	14.2	58.4	70.3	> 100	26.1	> 100	29.6	> 100	–	–
O=C([CH-]C(=O)c1ccccc1)c1ccccc1.[CH3-].[CH3-].[CH3-].[Sn+4]	6.68	31.5	22.9	94.9	8.25	53.8	12.7	71.8	27.1	70.1	1.93	11.5	17.3	> 100	8.81	56.1
c1ccc2c(-c3cnn4cc(-c5ccc(N6CCNCC6)cc5)cnc34)ccnc2c1	1.13	2.48	0.634	1.24	1.45	3.05	1.41	2.72	1.38	2.71	0.153	0.562	1.22	2.62	1.5	3.43
Oc1cc2c(cc1C(c1ccc3c(c1)OCO3)N1CCN(C(c3ccc4c(c3)OCO4)c3cc4c(cc3O)OCO4)CC1)OCO2 (stereo unspecified)	–	33.2	–	64.7	–	29.9	–	30.8	–	94.8	–	14.6	–	31	–	16.5
O=C(c1ccccc1)c1ccc(O)c2ncccc12	3.78	> 100	5.31	48.6	4.08	41	2.1	6.99	6.02	19.1	1.15	> 100	2.46	14.8	2.96	11
CNC(C)[C@H]1CCC2C3CCC4C[C@@H](N(C)C(=O)c5ccccc5)CC[C@]4(C)C3CC[C@@]21C (stereo partly specified)	1.25	3.36	1.43	3.17	3.44	23.2	1.22	3.99	2.06	5.29	–	–	1.82	8.34	1.44	16.4
COc1ccc(C2CC(c3cccc(OC)c3)=NN2C(=O)c2cc(OC)c(OC)c(OC)c2)cc1 (stereo unspecified)	0.654	> 100	> 23.1	> 100	5.83	> 100	–	–	3.66	> 100	0.359	> 100	5.03	> 100	10.8	> 100
Nc1cc(N)cc(Cc2ccccc2)c1	–	> 100	–	> 100	–	> 100	–	> 100	–	> 100	–	> 100	–	> 100	–	> 100
O=C(O)c1cc2cc(O)ccc2[nH]1	> 100	> 100	> 100	> 100	> 100	> 100	> 100	> 100	> 100	> 100	> 100	> 100	> 100	> 100	> 100	> 100
